Data reported in patent publication US11242344B2, “(4-hydroxypyrrolidin-2-yl)-heterocyclic compounds and methods of use thereof” (Genentech, Inc., priority 2017, dated 2022).

What was measured:
[1] = target: VHL Elongin B/C complex (Homo sapiens (Human), UniProt P40337); assay: Fluorescence Polarization (FP) VHL Binding Assay; settings: VHL binding, FP assay; geometric mean where more than one measurement
Description: The binding of test compounds to the VHL Elongin B/C complex was measured using a fluorescence polarization tracer competition assay. The VHL/Elongin B/C protein complex used in the assay was generated as follows. The coding region for amino acids E55-D213 of human VHL with N-terminal His6 tag with a TEV-protease cleavage site was co-expressed with Elongin B (residues M1-Q118) and Elongin C (Residues M17-C112) in E. coli. […] The purified VHL/Elongin B/C complex was dialyzed into formulation buffer: 20 mM Bis-Tris pH7.0, 150 mM NaCl, 1 mM DTT. A VHL fluorescence polarization probe (prepared in Example 91), consisted of a VHL ligand coupled to carboxytetramethylrhodamine (TAMRA); […] Compounds were prepared as a serial dilution in DMSO at a concentration 25-fold higher than the final desired concentration and acoustically dispensed (400 nl) into a ProxiPlate-384 Plus F, Black 384-shallow well Microplate (Part Number 6008260). DMSO was dispensed into wells designated for “VHL control” (without compound) wells. The “Assay Buffer” consisted of 50 mM Tris pH 8.0, 120 mM NaCl, 0.005% Nonidet P-40, and 1% DMSO (v/v). Assay Buffer containing […] VHL Elongin B/C complex was prepared and 5 μl dispensed using a BioRapTR (Beckman Coulter) into each well of the assay plate. Assay Buffer was also dispensed into “no VHL control” wells using the same method. A “pre-assay” fluorescence measurement was made using an Infinite® M1000 (Tecan) plate reader (Excitation 530 nm, Emission 574 nm, Bandwidth 10 nm). Assay Buffer containing 3.34 nM of the VHL FP probe was prepared in Assay Buffer and 5 μl dispensed into each well of the assay plate using a BioRapTR (Beckman Coulter). The final VHL/Elongin B/C protein concentration is 2.64 nM and the final probe concentration is 1.67 nM. Assay plates were briefly centrifuged and incubated for 1 hour at room temperature. “Post-assay” fluorescence polarization measurements were made as described for the “pre-assay” fluorescence measurement. Fluorescence polarization was calculated for each sample; taking into account the “pre-assay” fluorescence measurements and subtracting the fluorescence signal of the compound/VHL only (“pre-assay”) measurements from the “post-assay” fluorescence polarization measurements, for each plane of polarization. The data were analyzed using Genedata Screener software and normalized to the “no VHL control” and “VHL control” (without compound). IC50 values were calculated using a four parameter curve fit (Robust method).

[2] = target: NanoLuc VHL fusion protein (Homo sapiens (Human), UniProt P40337); assay: VHL HEK-293 BRET Assay (NanoBRET Target Engagement); type: cell-based; settings: geometric mean where more than one measurement
NanoLuc VHL fusion protein, sequence (P40337 whole entry, looked up, the tested form may be a part): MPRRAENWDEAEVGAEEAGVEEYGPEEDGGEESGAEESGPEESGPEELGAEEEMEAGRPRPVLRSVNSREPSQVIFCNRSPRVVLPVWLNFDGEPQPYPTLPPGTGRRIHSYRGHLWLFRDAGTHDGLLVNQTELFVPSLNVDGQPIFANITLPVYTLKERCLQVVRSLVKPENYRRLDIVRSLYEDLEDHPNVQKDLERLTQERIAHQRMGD
NanoLuc VHL fusion protein, sequence (Q15370 whole entry partner, looked up, the tested form may be a part): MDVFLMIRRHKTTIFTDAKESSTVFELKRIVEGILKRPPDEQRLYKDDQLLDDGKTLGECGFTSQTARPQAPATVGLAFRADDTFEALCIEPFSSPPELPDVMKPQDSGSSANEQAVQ
NanoLuc VHL fusion protein, sequence (Q15369 whole entry partner, looked up, the tested form may be a part): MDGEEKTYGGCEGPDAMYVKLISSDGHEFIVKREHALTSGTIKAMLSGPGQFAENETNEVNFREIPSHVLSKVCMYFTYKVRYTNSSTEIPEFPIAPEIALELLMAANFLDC
Description: The VHL NanoBRET™ Target Engagement Assay analyzes the apparent affinity of test compounds for VHL in cells by competitive displacement of a VHL NanoBRET™ tracer reversibly bound to a NanoLuc® VHL fusion protein stably expressed in the cells. Test compounds were transferred to the assay plate (384 Well White Non-Binding Corning Assay Plates (Corning-3574)) using an Echo 555 Liquid Handler (Labcyte) in 2.5 nL increments and, as appropriate, intermediate stock concentrations of compounds, in order to prepare a titration series. 50 nL of control compound (10 mM; parental unlabeled VHL antagonist; see structure below) and 50 nL of DMSO (negative control) were dispensed into the appropriate control wells. DMSO was backfilled to a final volume of 50 nL as required. 50 nl per well of 1 mM VHL NanoBRET™ Tracer in DMSO (NanoBRET™ Tracer-PEG2-590 (see structure below)) was transferred into each well using an Echo 555 (ultimately yielding a final concentration of 1 uM). HEK 293 RT VHL-NanoLuc® stable cells were cultured in DMEM High Glucose with Pyruvate, 10% fetal bovine serum, 2 mg/mL of Geneticin Selective Antibiotic (50 mg/ml) and 2 mM HEPES (1 M). Cells were seeded in Opti-MEM (Life Technologies-11058-021), 1.7×10^5 cells/mL, 40 μl per well into the assay plate, centrifuged at 500 rpm for 30 seconds and incubated for 2 hours. Max Signal control wells consisted of DMSO only treated wells. Minimum Signal control wells contained of 10 uM parental unlabeled VHL antagonist (control compound—see structure below). 3× Complete Substrate plus Inhibitor Solution was prepared in Opti-MEM (consists of a 1:166 dilution of NanoBRET™ Nano-Glo® Substrate plus a 1:500 dilution of Extracellular NanoLuc® Inhibitor in Opti-MEM), and 20 ul was dispensed into each well of the 384-well plate and centrifuged at 1000 rpm for 1 minute, then incubated for 2 minutes at room temperature. Background Signal control wells were prepared without tracer for background correction steps. Plates were read using a PerkinElmer Envision Reader (model 2104-0020) equipped with Luminescence option (Mirror: BRET2 Enh (PE Barcode 659), Emission Filter: Omega 610LP (Barcode 504), 2nd Emission Filter: Umbelliferone 460 (Barcode 207), Measurement height: 6.5 mm, Measurement time: 1 s). The raw BRET ratio values were calculated by dividing the acceptor emission value (610 nm) by the donor emission value (460 nm) for each sample. To correct for background, the BRET ratio in the absence of tracer (average of no-tracer control samples) was subtracted from the BRET ratio of each sample. Raw BRET units were converted to milliBRET units (mBU) by multiplying each raw BRET value by 1,000. The normalized NanoBRET™ signal was calculated relative to the Max Signal control wells (DMSO treated control wells) and the Minimum Signal control wells. Percentage inhibition was calculated relative to the Minimum Signal control and Maximum Signal control wells. IC50 values were derived by four parameter curve fitting using the Robust method.

[3] = target: VHL co-expressed with Elongins B and C (Homo sapiens (Human), UniProt P40337); assay: Surface Plasmon Resonance Assay; type: binding; settings: SPR measured VHL affinity; geometric mean where more than one measurement
VHL co-expressed with Elongins B and C, sequence (P40337 whole entry, looked up): as the sequence (P40337 whole entry, looked up, the tested form may be a part) above
VHL co-expressed with Elongins B and C, sequence (Q15370 whole entry partner, looked up): as the sequence (Q15370 whole entry partner, looked up, the tested form may be a part) above
VHL co-expressed with Elongins B and C, sequence (Q15369 whole entry partner, looked up): as the sequence (Q15369 whole entry partner, looked up, the tested form may be a part) above
Description: Using a Biacore T200, […] tagged VHL co-expressed with Elongins B and C were immobilized to a Biacore SA chip in running buffer without DMSO. Compounds were tested individually at varying concentrations in running buffer (50 mM HEPES pH 7.2, 150 mM NaCl, 0.5 mM TCEP, 0.001% Tween 20, 0.2% PEG3350, 2% DMSO) at 20° C. Sensorgrams were run in order from low to high concentration using a flow rate of 80 μL/min. Association and disassociation times were varied depending on the estimated potency of the compound tested. […] Galdeano et al, J. Med. Chem. 2014, 57, 8657-8663, herein incorporated by reference) which retained greater than 75% of the activity over the course of the run. Analysis of the binding curves and determination of the kinetic parameters were done using evaluation software (Version 2.0, Biacore).

VHL Elongin B/C complex, sequence (P40337 whole entry, looked up, the tested form may be a part): as the sequence (P40337 whole entry, looked up, the tested form may be a part) above
VHL Elongin B/C complex, sequence (Q15370 whole entry partner, looked up, the tested form may be a part): as the sequence (Q15370 whole entry partner, looked up, the tested form may be a part) above
VHL Elongin B/C complex, sequence (Q15369 whole entry partner, looked up, the tested form may be a part): as the sequence (Q15369 whole entry partner, looked up, the tested form may be a part) above

Compound | IC50 [1] [µM] | IC50 [2] [µM] | Kd [3] [µM]
Cc1ncsc1-c1ccc([C@]2(C)NC(C3C[C@@H](O)CN3C(=O)[C@@H](NC(=O)C3(C#N)CC3)C(C)(C)C)=NC2=O)cc1 (single isomer, unassigned) [Example 111.1] | 111 | ≥ 100 | 31.8
CCN1N=C([C@@H]2C[C@@H](O)CN2C(=O)C(c2cc(C)no2)C(C)C)NC1(C)C (single isomer, unassigned) [Example 115.2] | 40.7 | 25.7 | 4.03
Cc1cc(C(C(=O)N2C[C@H](O)C[C@H]2C2=NO[C@](C)(c3ccc(-c4ccccc4F)cc3)N2)C(C)C)on1 (single isomer, unassigned) [Example 139.2] | 0.0628 | 0.0678 | 
Cc1cc([C@H](C(=O)N2C[C@H](O)C[C@H]2C2=NOC(C)(c3ccccc3)N2)C(C)C)on1 (single isomer, unassigned) [Example 128.4] | 17.3 | 24.5 | 7.5
Cc1cc(C(C(=O)N2C[C@H](O)CC2C2=NS(=O)(=O)CN2)C(C)C)on1 (single isomer, unassigned) [Example 137.2] | 47.3 | ≥ 100 | 
Cc1cc(C(C(=O)N2C[C@H](O)CC2C2=NS(=O)(=O)CN2)C(C)C)on1 (single isomer, unassigned) [Example 137.1] | ≥ 400 | ≥ 100 | 
Cc1cc(C(C(=O)N2C[C@H](O)C[C@H]2C2=NO[C@](C)(c3ccc(-c4ccccc4F)cc3)N2)C(C)C)on1 (single isomer, unassigned) [Example 139.1] | 10 | 21.7 | 
Cc1cc([C@H](C(=O)N2C[C@H](O)CC2C2=NOC3(CCCc4ccccc43)N2)C(C)C)on1 (single isomer, unassigned) [Example 131.4] | 19.9 | 20 | 
C#Cc1cccc(Nc2ncnc3cc(OCCOC)c(OCCOCC#CC#CCOc4cc(C(C(=O)N5C[C@H](O)CC5C5=NC(=O)[C@](C)(c6ccc(-c7scnc7C)cc6)N5)C(C)C)on4)cc23)c1 (single isomer, unassigned) [Example 1004.2] | 75.8 | 46.4 | 
Cc1cc([C@@H](C(=O)N2C[C@H](O)CC2C2=NOC3(CCCc4ccccc43)N2)C(C)C)on1 (single isomer, unassigned) [Example 131.1] | 160 | 100 | 
C#Cc1cccc(Nc2ncnc3cc(OCCOC)c(OCCOCC#CC#CCOc4cc(C(C(=O)N5C[C@H](O)CC5C5=NC(=O)[C@](C)(c6ccc(-c7scnc7C)cc6)N5)C(C)C)on4)cc23)c1 (single isomer, unassigned) [Example 1004.3] | 75.8 | ≥ 100 | 
Cc1cc([C@@H](C(=O)N2C[C@H](O)CC2C2=NOC3(CCCc4ccccc43)N2)C(C)C)on1 (single isomer, unassigned) [Example 131.2] | 242 | 100 | 
C#Cc1cccc(Nc2ncnc3cc(OCCOC)c(OCCOCC#CC#CCOc4cc(C(C(=O)N5C[C@H](O)CC5C5=NC(=O)[C@](C)(c6ccc(-c7scnc7C)cc6)N5)C(C)C)on4)cc23)c1 (single isomer, unassigned) [Example 1004.4] | 6.25 | ≥ 100 | 
Cc1cc(C(C(=O)N2C[C@H](O)CC2C2=NS(=O)(=O)CN2)C(C)C)on1 (single isomer, unassigned) [Example 137.3] | ≥ 400 | ≥ 100 | 
Cc1cc(C(C(=O)N2C[C@H](O)CC2C2=NC(=O)C(C)(c3ccc(-c4cccc(=O)n4C)cc3)N2)C(C)C)on1 (single isomer, unassigned) [Example 108.1] | 57.5 |  | 13.9
Cc1cc(C(C(=O)N2C[C@H](O)CC2C2=NC(=O)C(C)(c3ccc(-c4cccnc4)cc3)N2)C(C)C)on1 (single isomer, unassigned) [Example 105.2] | 136 |  | 113
C#Cc1cccc(Nc2ncnc3cc(OCCOC)c(OCCOCC#CC#CCOc4cc(C(C(=O)N5C[C@H](O)CC5C5=NC(=O)[C@](C)(c6ccc(-c7scnc7C)cc6)N5)C(C)C)on4)cc23)c1 (single isomer, unassigned) [Example 1004.1] | 6.25 | 68.3 | 
CC(=O)N[C@H](C(=O)N1C[C@H](O)CC1C1=NC(=O)C(C)(c2ccc(-c3scnc3C)cc2)N1)C(C)(C)C (single isomer, unassigned) [Example 102.2] | 93.1 |  | 43.8
CC(=O)N[C@H](C(=O)N1C[C@H](O)CC1C1=NC(=O)C(C)(c2ccc(-c3scnc3C)cc2)N1)C(C)(C)C (single isomer, unassigned) [Example 102.1] | 6.17 |  | 1.96
Cc1cc(C(C(=O)N2C[C@H](O)CC2C2=NC(=O)C(C)(c3ccc(-c4scnc4C)cc3)N2)C(C)C)on1 (single isomer, unassigned) [Example 104.3] | 230 |  | 44.6
Cc1cc(C(C(=O)N2C[C@H](O)CC2C2=NC(=O)C(C)(c3ccc(Br)cc3)N2)C(C)C)on1 (single isomer, unassigned) [Example 103.2] | > 400 |  | > 150
Cc1cc(C(C(=O)N2C[C@H](O)CC2C2=NC(=O)C(C)(c3ccc(-c4cccc(=O)n4C)cc3)N2)C(C)C)on1 (single isomer, unassigned) [Example 108.4] | > 400 |  | > 0.3
CC(=O)N[C@H](C(=O)N1C[C@H](O)CC1C1=NC(=O)C(C)(c2ccc(-c3scnc3C)cc2)N1)C(C)(C)C (single isomer, unassigned) [Example 102.3] | 43.3 |  | 10.7
Cc1cc([C@H](C(=O)N2C[C@H](O)CC2C2=NOC3(CCCc4ccccc43)N2)C(C)C)on1 (single isomer, unassigned) [Example 131.3] | 19.6 | 23 | 
